Measured values reported in patent publication US7932266B2, “Isoquinoline derivatives as calpain inhibitors” (Consejo Superior de Investigaciones Cientificas, priority 2004, dated 2011).

Assays:
calpain = assay: Calpain inhibition, first results on earlier isoquinoline derivatives; type: biochemical; conditions: simple derivative of isoquinoline without peptide chain; applicant's first results
[1] = target: T1, calpain I from porcine erythrocyte (Sus scrofa, UniProt P35750); assay: Enzyme activity test: inhibition of calpain (fluorimetric, BODIPY-FL casein substrate); type: biochemical; conditions: 7 inhibitor concentrations between 10 nM and 200 μM
T1 construct: calpain I from porcine erythrocyte (Calbiochem, Cat No 208712) was used as enzyme; purchased Calbiochem 208712; host or cells: porcine erythrocyte (natural source)
T1 sequence (P35750 1-714): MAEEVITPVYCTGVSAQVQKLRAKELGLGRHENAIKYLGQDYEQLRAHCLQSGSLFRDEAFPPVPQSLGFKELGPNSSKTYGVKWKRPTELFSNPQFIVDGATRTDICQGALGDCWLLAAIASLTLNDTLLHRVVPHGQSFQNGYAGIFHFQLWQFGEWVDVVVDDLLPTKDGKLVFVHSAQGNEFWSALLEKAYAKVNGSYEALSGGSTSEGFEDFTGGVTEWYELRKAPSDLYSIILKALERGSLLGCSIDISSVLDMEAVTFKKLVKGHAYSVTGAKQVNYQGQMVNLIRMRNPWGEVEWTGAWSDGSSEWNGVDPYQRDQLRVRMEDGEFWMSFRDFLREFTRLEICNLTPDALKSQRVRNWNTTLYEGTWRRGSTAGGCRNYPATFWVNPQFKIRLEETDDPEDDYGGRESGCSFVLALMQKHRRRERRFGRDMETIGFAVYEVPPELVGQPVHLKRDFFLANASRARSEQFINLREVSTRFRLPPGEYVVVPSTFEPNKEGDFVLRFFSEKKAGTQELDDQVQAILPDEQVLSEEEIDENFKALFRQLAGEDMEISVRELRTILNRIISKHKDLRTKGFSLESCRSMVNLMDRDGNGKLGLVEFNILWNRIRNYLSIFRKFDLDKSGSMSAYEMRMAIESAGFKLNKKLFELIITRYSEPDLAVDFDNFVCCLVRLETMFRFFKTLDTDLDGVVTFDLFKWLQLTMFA
T1 sequence (P04574 1-266 partner): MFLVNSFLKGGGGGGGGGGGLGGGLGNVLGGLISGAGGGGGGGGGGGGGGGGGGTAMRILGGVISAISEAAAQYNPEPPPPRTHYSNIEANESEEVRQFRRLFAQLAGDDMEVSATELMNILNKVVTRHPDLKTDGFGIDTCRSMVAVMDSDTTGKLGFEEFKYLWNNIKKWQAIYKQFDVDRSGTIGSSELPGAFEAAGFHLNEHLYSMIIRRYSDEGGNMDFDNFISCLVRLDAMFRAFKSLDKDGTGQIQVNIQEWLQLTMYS
Text: The capacity to inhibit calpain has been quantified in terms of the value of IC50, which is defined as the concentration of inhibitor that reduces the catalytic activity of an enzyme by half. The lower the value of IC50, the more powerful the inhibitor. Inhibition results on calpain I (the most relevant from a physiological point of view) of some compounds of the present invention are shown in table 1 and in FIG. 1. Given that calpain II, also known as milli-calpain, needs a greater amount of Ca^2+ for activation, it might not possibly have such a relevant physiological role since such a concentration of Ca^2+ would cause cell death before the milli-calpain could become activated. For this reason, the inhibition tests have been performed for calpain I, though they can be extrapolated for calpain II.
The calpain inhibition capacity has been quantified in terms of the value of IC50, which is defined as the concentration of inhibitor that reduces the catalytic activity of an enzyme by half. The lower the value of IC50, the more powerful the inhibitor. Inhibition results on calpain I (the most relevant from a physiological point of view) of some compounds of the present invention are shown in table 1 and in FIG. 1.
The experiments were conducted spectrofluorimetrically using a Spectrofluor Tecan Corp 93382 spectrofluorimeter, exciting at […] and measuring at […]. Casein marked with BODIPY-FL® (Molecular Probes) was used as substrate and calpain I from porcine erythrocyte (Calbiochem, Cat No 208712) was used as enzyme. The freeze-dried substrate is component A of the protease assay kit EnzChek® green fluorescence from Molecular Probes (reference # E-6638); component B, known as 20× digestion buffer, contains 13 mL of 200 mM Tris-HCl, pH 7.8 and 2 mM sodium azide. The commercial calpain I that was used has a concentration of 1 mg in 1 mL of aqueous solution (the solution is 20 mM imidazol-HCl, pH 6.8, 1 mM EDTA, 1 mM EGTA, 5 mM β-mercaptoethanol, containing 30% glycerine).
2.5 mL of 20× digestion buffer (component B of the kit from Molecular Probes) was diluted with water to a total volume of 50 mL.
200 μg of freeze-dried substrate (component A of the kit from Molecular Probes) was dissolved in 200 μL of phosphate saline buffer. This solution was decanted into a graduated flask and diluted with the digestion solution to a total volume of 40 mL.
20 μL of commercial solution of calpain was diluted with the digestion solution to a total volume of 200 μL.
The inhibitor was dissolved in DMSO. Each inhibitor was assayed at 7 different concentrations between 10 nM and 200 μM.
All the data were obtained measuring the variation in fluorescence with time. The use of a multi-cell device and Eppendorf multi-channel pipettes permitted measurement of the variation in fluorescence in up to 64 experiments. In this way, the control experiment and the experiments with the different concentrations of inhibitor was carried out in the same set of measurements. All the experiments were conducted twice.
The control experiment was carried out mixing 180 μL of casein solution and 5 μL of calpain solution. The reaction was initiated by the addition of 10 μL of a 50 μM solution of CaCl2 in water, and the fluorescence was measured from the moment of the addition of Ca^2+ (time=0) and for 250-300 seconds (measuring during 20 kinetic cycles). The variation in fluorescence (ΔF) was represented against time (t). In order to test the effect of DMSO on enzyme activity, additional control experiments were conducted adding DMSO (in the quantities used in the experiments with the inhibitors), with the same result being obtained as in the control experiment.
180 μL of casein solution, 5 μL of calpain solution and 5 μL of inhibitor solution (of variable concentration) were mixed together. […]

Row | IC50 [1] [µM] | melting point [°C] | Structure (SMILES) | activity as calpain inhibitor (calpain)
1 | 5 | 116 to 120 | CC[C@H](C)[C@H](NC(=O)OCC1c2ccccc2-c2ccccc21)C(=O)Nc1ccccc1-c1ccccc1NC(=O)/C=C1/c2ccccc2C(=O)N[C@H]1[C@@H](C)CC [Compound 21, (S,S,S,S,Z)-9H-fuorene-9-ylmethyl (1-{2′-[2-(3-sec-butyl-1-oxo-2,3-dihydro-1 H-isoquinolin-4-yliden)-acetylamino]-biphenyl-2-ylcarbamoyl}-2-methyl-butyl)-carbamate] | –
2 | 100 | 133 to 135 | CC[C@H](C)[C@@H]1NC(=O)c2ccccc2/C1=C/C(=O)Nc1ccccc1-c1ccccc1NC(=O)[C@@H](NC(=O)OCC1c2ccccc2-c2ccccc21)C(C)C [Compound 19, (S,S,S,Z)-9H-fuorene-9-ylmethyl (1-{2′-[2-(3-sec-butyl-1-oxo-2,3-dihydro-1H-isoquinolin-4-yliden)-acetylamino]-biphenyl-2-ylcarbamoyl}-2-methyl-propyl)-carbamate] | –

The next lines start with the compound.

Row | Structure (SMILES) | IC50 [1] [µM] | melting point [°C] | activity as calpain inhibitor (calpain)
3 | COC(=O)/C=C1/c2ccccc2C(=O)N[C@H]1C(C)C [Compound 3] | – | – | not calpain inhibitors
4 | CC[C@H](C)[C@@H]1NC(=O)c2ccccc2/C1=C/C(=O)Nc1ccccc1-c1ccccc1NC(=O)[C@H](Cc1ccccc1)NC(=O)OCC1c2ccccc2-c2ccccc21 [Compound 20, (S,S,S,Z)-9H-fuorene-9-ylmethyl (1-{2′-[2-(3-sec-butyl-1-oxo-2,3-dihydro-1H-isoquinolin-4-yliden)-acetylamino]-biphenyl-2-ylcarbamoyl}-2-phenyl-ethyl)-carbamate] | 48 | 108 to 110 | –
5 | CC[C@H](C)[C@@H]1NC(=O)c2ccccc2/C1=C/C(=O)Nc1cccc(C(C)=O)c1 [Compound 16, (S,S,Z)-N-(3-acetyl-phenyl)-2-(3-sec-butyl-1-oxo-2,3-dihydro-1H-isoquinolin-4-yliden)-acetamide] | 130 | 147 to 151 | –
